Experimental data published in paper PMC4067310, “From Pan-Reactive KV7 Channel Opener to Subtype Selective Opener/Inhibitor by Addition of a Methyl Group” (PLoS ONE, 2014).

What was measured:
KV7.2-W236L = target: T1, KV7.2-W236L (Homo sapiens, UniProt O43526, W236L); assay: Two-electrode voltage-clamp of mutant KV7.2-W236L in Xenopus laevis oocytes; format: cell-based
T1 construct: expressed in transfected cells; host or cells: Xenopus laevis oocytes injected with cRNA (pGEM-HE vector)
Experimental: (§1) Point mutations were introduced using mutated oligonucleotide extension (PfuTurbo Polymerase, Stratagene, La Jolla, CA, USA) from a plasmid template harboring the cDNA of interest, digested with DpnI (Fermentas, St. Leon-Roth, Germany) and transformed into E.coli XL1 Blue cells. The construct was verified by complete DNA sequencing of the cDNA insert. cRNA was prepared from linearized human wild-type (WT) and mutant KV7 channels in the pGEM-HE vector using the T7 m-Message Machine kit (Ambion, Austin, TX, USA) according to the manufacturer's instructions.
(§2) Extraction of Xenopus laevis oocytes and injection of cRNA was performed as described previously. Oocytes were kept in Modified Barth's Saline (in mM: 88 NaCl, 1 KCl, 2.4 NaHCO3, 0.41 CaCl2, 0.82 MgSO4, 0.3 Ca(NO3)2, 15 HEPES, pH 7.4 supplemented with 100 U/mL penicillin and 100 µg/mL streptomycin) at 18°C, and currents were recorded after 2-7 days. The care of Xenopus laevis and the oocyte extraction procedure were performed according to national guidelines and approved by the Danish Animal Experiments Inspectorate.
(§3) KV7 currents in Xenopus laevis oocytes were recorded using two-electrode voltage-clamp at room temperature in Ringer buffer (in mM: 115 NaCl, 2.5 KCl, 1.8 CaCl2, 0.1 MgCl2, 10 HEPES, pH 7.4) as described previously. Data was acquired using pCLAMP 10.2 software (Molecular Devices, CA, USA) and analyzed using pCLAMP 10.2 and GraphPad Prism 4.0 (GraphPad Software Inc., CA, USA). Currents were elicited from a holding potential of −80 mV by 5 s steps to potentials between −100 and +50 mV in 10 mV increments, followed by a 2 s step to −120 mV.
SMB-1 was dissolved in dimethyl sulfoxide (DMSO) to obtain a concentrated stock solution. On the day of experiments the stock solution was thawed and diluted in Ringer buffer to the final concentrations. A concentration of 10 µM SMB-1 was used unless indicated otherwise. The final DMSO concentration never exceeded 0.1%.
Current – voltage (I–V) relationship curves were generated by normalizing the steady-state peak current measured at potentials between −100 and +50 mV to the current measured at +50 mV in control recordings and plotting the values against the test potential.
The voltage-dependence of activation was determined from tail current analysis using the current measured immediately after the transient capacitive current after stepping to −120 mV from potentials between −100 mV and +50 mV. Data was normalized to extend from 0–1 and the tail current-voltage relationship was fitted to the Boltzmann equation: [drawing 1] (Equation\;1) where I max is the maximum tail current, I min is the minimum tail current, V0.5 is the potential for half maximal activation and k is the slope factor. A V0.5 was calculated for each individual experiment and statistical significance was estimated by paired two-tailed Student's t-test.
Activation kinetics for KV7.2 and KV7.2-W236L was determined by fitting the traces recorded at potentials between −40 and +40 mV to a double exponential function: [drawing 2] (Equation\;2) where I(t) is the current at time t, Ifast and Islow are the current amplitudes at infinite times, and τfast and τslow are the time constants of the fast and slow components, respectively.
For investigation of deactivation kinetics the tail current traces recorded at −120 mV when stepping from the channels' respective ∼V0.5 were fitted to a single exponential function (Eq. 3).

KV7.4-L305V = target: T2, KV7.4-L305V (Homo sapiens, UniProt P56696, L305V); assay: Two-electrode voltage-clamp of mutant KV7.4-L305V in Xenopus laevis oocytes; format: cell-based; conditions: 10 µM SMB-1, +50 mV, n = 6; read-out: current amplitude, % of control
T2 construct: expressed in transfected cells; host or cells: Xenopus laevis oocytes injected with cRNA (pGEM-HE vector)
T2 sequence (P56696 1-695 L305V): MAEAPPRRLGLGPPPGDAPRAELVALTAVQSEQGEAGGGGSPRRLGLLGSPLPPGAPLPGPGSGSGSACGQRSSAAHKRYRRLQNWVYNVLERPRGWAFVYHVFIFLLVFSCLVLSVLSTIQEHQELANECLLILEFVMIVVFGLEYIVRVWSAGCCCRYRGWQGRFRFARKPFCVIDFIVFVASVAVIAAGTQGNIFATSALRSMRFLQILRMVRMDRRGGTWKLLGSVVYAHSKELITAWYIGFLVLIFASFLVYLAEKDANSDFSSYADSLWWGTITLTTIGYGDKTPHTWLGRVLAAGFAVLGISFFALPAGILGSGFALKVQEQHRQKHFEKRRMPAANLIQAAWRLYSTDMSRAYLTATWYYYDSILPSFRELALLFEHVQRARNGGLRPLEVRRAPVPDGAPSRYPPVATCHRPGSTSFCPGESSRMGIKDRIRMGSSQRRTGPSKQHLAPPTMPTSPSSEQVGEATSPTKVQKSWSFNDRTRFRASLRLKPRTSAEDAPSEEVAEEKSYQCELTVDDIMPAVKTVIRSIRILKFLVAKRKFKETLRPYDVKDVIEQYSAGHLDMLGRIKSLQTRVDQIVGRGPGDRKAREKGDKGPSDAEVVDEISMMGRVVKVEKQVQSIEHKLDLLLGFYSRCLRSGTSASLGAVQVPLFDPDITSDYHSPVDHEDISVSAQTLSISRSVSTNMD
Experimental: as §1
as §2, with “The care of Xenopus laevis and the oocyte extraction procedure were performed according to national guidelines and approved by the Danish Animal Experiments Inspectorate.” left out
as §3, with “Currents were elicited from a holding potential of −80 mV by 5 s steps to potentials between −100 and +50 mV in 10 mV increments, followed by a 2 s step to −120 mV.” left out

[1] = Free fraction by equilibrium dialysis, rat plasma; format: in vitro ADME; conditions: equilibrium dialysis 37°C 5 h, mean ± S.E.M., n = 3
Experimental: The bidirectional permeability (Papp) of SMB-1 was examined in an MDCK cell system expressing human MDR1 [ABCB1, P-glycoprotein (P-gp)] as described previously. Permeation of the test compound from apical (A) to basal (B) direction or B to A direction was determined in triplicate over a 150-min incubation at 37°C. The efflux ratio was calculated as the ratio between Papp (B to A) and Papp (A to B). Free fraction of SMB-1 was determined using a standard equilibrium dialysis methodology with freshly isolated rat brain homogenate or plasma. Equilibrium dialysis was performed by incubating at 37°C for 5 h in triplicates.

T1 sequence (O43526 whole entry W236L): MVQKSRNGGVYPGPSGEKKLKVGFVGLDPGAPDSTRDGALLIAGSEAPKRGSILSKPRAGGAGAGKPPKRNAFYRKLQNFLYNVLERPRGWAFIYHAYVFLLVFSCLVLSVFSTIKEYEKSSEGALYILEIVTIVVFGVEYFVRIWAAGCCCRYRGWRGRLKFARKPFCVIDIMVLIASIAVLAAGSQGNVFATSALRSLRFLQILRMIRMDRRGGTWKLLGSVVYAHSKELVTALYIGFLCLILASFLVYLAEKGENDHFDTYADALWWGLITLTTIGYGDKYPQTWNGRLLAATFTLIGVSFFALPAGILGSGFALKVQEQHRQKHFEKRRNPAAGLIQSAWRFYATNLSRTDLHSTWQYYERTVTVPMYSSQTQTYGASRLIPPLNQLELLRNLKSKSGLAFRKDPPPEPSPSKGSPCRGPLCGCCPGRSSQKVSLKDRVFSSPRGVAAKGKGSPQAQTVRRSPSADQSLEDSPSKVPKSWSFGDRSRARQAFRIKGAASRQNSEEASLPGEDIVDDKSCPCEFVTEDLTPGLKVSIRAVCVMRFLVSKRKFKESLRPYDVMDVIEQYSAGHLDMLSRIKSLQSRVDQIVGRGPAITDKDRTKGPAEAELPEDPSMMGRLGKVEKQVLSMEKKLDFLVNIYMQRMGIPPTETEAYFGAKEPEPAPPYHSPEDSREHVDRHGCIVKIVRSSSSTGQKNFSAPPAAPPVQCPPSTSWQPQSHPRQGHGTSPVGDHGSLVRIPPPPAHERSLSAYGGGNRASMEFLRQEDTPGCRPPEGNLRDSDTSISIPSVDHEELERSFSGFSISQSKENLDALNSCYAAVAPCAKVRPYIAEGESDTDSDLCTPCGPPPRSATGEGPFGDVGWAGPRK

- effect on τact_fast (KV7.2-W236L; 10 µM): no significant effect
- remaining activity at 10 µM (KV7.2-W236L; 10 µM SMB-1, +50 mV, n = 6, read-out: current amplitude, % of control): 68.8 ± 3.9%
- effect on τact_slow (KV7.2-W236L; 10 µM, at potentials above −20 mV): significantly increased
- τdeact, deactivation time constant in presence of compound (KV7.2-W236L; 10 µM, control 23.3±2.9 ms, n = 6, p<0.05): 27.0 ± 3.0 ms
- V0.5, voltage-dependence of activation in presence of compound (KV7.2-W236L; 10 µM, control −27.1±2.4 mV, n = 4, p = 0.2): −15.0±10.1 mV
- remaining activity at 10 µM (KV7.4-L305V): 101 ± 10.3%
- fraction unbound at 5 h [1]: 0.006 ± 0.004
Compound: C[C@@H](c1ccc2c(c1)N(CC1CC1)CCO2)N(C)C(=O)/C=C/c1ccccc1F [SMB-1, (E)-N-[(S)-1-(4-Cyclopropylmethyl-3,4-dihydro-2H-1,4-benzoxazin-6-yl)-ethyl]-3-(2-fluoro-phenyl)-N-methyl-acrylamide]
